Consider 22 compounds from US12668600B2 (Kumquat Biosciences Inc., priority 2023, dated 2026).

SMILES strings stand for the structures.

What all share (format): biochemical
One experiment has as its target T1, KRAS G12V (Homo sapiens, UniProt P01116, G12V).
T1 construct: made in house; host or cells: E. coli, e.g. BL21 (DE3)
As to the kind of experiment: HTRF KRAS-SOS1 interaction assay, KRAS G12V. As to conditions: binned ≤2 μM / >2 μM, read-out: Inhibition of KRAS G12V (IC50). The method in brief: (§1)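 GST-tagged KRAS (WT or mutant) with anti-GST-Eu donor, mixed with His-hSOS1 and anti-6His-XL665 acceptor. Buffer ~5 mM HEPES pH 7.4, ~150 mM NaCl, ~1 mM DTT, 0.05% BSA, 0.0025% Igepal; incubated about 10 min or longer. HTRF 665/620 ratio, compounds in duplicate up to 10 μM, IC50 derived.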

The target of a further experiment is T2, KRAS WT (Homo sapiens, UniProt P01116).
T2 construct: made in house; host or cells: E. coli, e.g. BL21 (DE3)
As to the kind of experiment: HTRF KRAS-SOS1 interaction assay, wildtype KRAS. As to conditions: binned ≤2 μM / >2 μM, read-out: Inhibition of KRAS WT (IC50). The essentials:
as §1
In general terms: In TR-FRET formats the signal depends on donor and acceptor labels being close together.

A further experiment concerns the target T3, KRAS G12D (Homo sapiens, UniProt P01116, G12D).
T3 construct: made in house; host or cells: E. coli, e.g. BL21 (DE3)
Description: HTRF KRAS-SOS1 interaction assay, KRAS G12D. Conditions: binned ≤2 μM / >2 μM, read-out: Inhibition of KRAS G12D (IC50). The method in brief: as §1

The next experiment deals with T4, KRAS G12S (Homo sapiens, UniProt P01116, G12S).
T4 construct: made in house; host or cells: E. coli, e.g. BL21 (DE3)
As to the kind of experiment: HTRF KRAS-SOS1 interaction assay, KRAS G12S. Conditions: binned ≤2 μM / >2 μM, read-out: Inhibition of KRAS G12S (IC50). The method in brief: as §1

T2 sequence (P01116 1-188 isoform P01116-2): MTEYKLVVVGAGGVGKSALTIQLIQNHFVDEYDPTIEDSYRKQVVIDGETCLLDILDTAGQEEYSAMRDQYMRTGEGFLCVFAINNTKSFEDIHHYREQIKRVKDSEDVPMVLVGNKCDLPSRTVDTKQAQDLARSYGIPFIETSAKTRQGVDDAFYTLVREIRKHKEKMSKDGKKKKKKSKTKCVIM
T4 sequence (P01116 1-188 isoform P01116-2 G12S): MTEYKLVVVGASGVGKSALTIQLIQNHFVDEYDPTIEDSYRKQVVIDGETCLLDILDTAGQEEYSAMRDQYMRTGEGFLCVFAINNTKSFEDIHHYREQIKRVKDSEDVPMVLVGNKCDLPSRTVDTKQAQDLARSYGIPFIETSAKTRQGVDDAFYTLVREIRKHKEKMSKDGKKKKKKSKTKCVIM
T1 sequence (P01116 1-188 isoform P01116-2 G12V): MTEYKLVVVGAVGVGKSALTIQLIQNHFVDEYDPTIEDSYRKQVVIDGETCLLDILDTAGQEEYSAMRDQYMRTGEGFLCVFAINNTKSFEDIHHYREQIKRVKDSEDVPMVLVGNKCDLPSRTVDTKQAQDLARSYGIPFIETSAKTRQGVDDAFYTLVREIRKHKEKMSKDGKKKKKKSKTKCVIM
T3 sequence (P01116 1-188 isoform P01116-2 G12D): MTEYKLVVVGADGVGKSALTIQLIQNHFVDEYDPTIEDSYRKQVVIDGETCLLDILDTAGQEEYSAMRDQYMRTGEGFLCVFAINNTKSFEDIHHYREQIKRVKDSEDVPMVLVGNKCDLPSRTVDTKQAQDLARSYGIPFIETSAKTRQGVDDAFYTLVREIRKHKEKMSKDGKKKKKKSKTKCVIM

What is called IC50 is the point on the concentration scale where inhibition reaches its midpoint. For the compound `C[C@@H]1COCCN1CC1(COc2nc3c4c(c(C(F)(F)F)c(-c5ccc(F)c6sc(N)c(C#N)c56)c(F)c4n2)OCCN3[C@H](C)c2cccnc2N)CC1` (single isomer, unassigned) [Compound 807], the IC50 on KRAS G12V, at KRAS WT, on KRAS G12D and at KRAS G12S was above 2000 nM in each case.

As to `C[C@@H]1CN(CC2(COc3nc4c5c(c(C(F)(F)F)c(-c6ccc(F)c7sc(N)c(C#N)c67)c(F)c5n3)OCCN4[C@H](C)c3cccnc3N)CC2)CCO1` (single isomer, unassigned) [Compound 812], the IC50 on KRAS G12V, on KRAS WT, on KRAS G12D and on KRAS G12S was at most 2000 nM in each case.

For the compound `Cc1c(F)c(N)cc(-c2nc3c4c(nc(O[C@@H](C)[C@@H]5CCCN5C)nc4c2F)N([C@H](C)c2cccnc2N)C[C@H](C)O3)c1C(F)(F)F` (single isomer, unassigned) [Compound 816], the IC50 on KRAS G12V, at KRAS WT, at KRAS G12D and at KRAS G12S was at most 2000 nM throughout.

Turning to `Cc1ccnc(N)c1[C@@H](C)N1CCOc2c(C(F)(F)F)c(-c3ccc(F)c4sc(N)c(C#N)c34)c(F)c3nc(OC[C@@]45CCCN4C[C@H](F)C5)nc1c23` (single isomer, unassigned) [Compound 821], the IC50 at KRAS G12V, at KRAS WT, at KRAS G12D and on KRAS G12S was at most 2000 nM each time.

With `C[C@H](c1cccnc1N)N1CCOc2c(Cl)c(-c3ncc(F)c4sc(N)c(C#N)c34)c(F)c3nc(OC[C@@]45CCCN4C[C@H](F)C5)nc1c23` (single isomer, unassigned) [Compound 825], the IC50 at KRAS G12V, at KRAS WT, at KRAS G12D and on KRAS G12S was at most 2000 nM in each case.

Regarding `C[C@@H]1CN(CC2(COc3nc4c5c(c(C(F)(F)F)c(-c6ccc(F)c7sc(N)c(C#N)c67)c(F)c5n3)OCCN4[C@H](C)c3cccnc3N)CC2)CCO1` (single isomer, unassigned) [Compound 826], the IC50 at KRAS G12V, on KRAS WT, on KRAS G12D and at KRAS G12S was above 2000 nM in each case.

Take `CCN(CC)CCC[C@H](c1cccnc1N)N1CCOc2c(C(F)(F)F)c(-c3ccc(F)c4sc(NC)c(C#N)c34)c(F)c3nc(OC[C@@]45CCCN4C[C@H](F)C5)nc1c23` (single isomer, unassigned) [Compound 832]: the IC50 at KRAS G12V, on KRAS WT, at KRAS G12D and on KRAS G12S was at most 2000 nM each time.

For `N#Cc1c(N)sc2c(F)ccc(-c3c(C(F)(F)F)c4c5c(nc(OC[C@@]67CCCN6C[C@@]6(CC6(F)F)C7)nc5c3F)N([C@@H](c3cccnc3N)C(F)F)CCO4)c12` (single isomer, unassigned) [Compound 843], the IC50 at KRAS G12V, on KRAS WT, at KRAS G12D and at KRAS G12S was at most 2000 nM each time.

With `C[C@H](c1cccnc1N)N1CCOc2c(C(F)(F)F)c(-c3cc(F)c(F)c4sc(N)c(C#N)c34)c(F)c3nc(OC[C@@]45CCCN4C[C@H](F)C5)nc1c23` (single isomer, unassigned) [Compound 853], the IC50 on KRAS G12V, on KRAS WT, on KRAS G12D and on KRAS G12S was at most 2000 nM each time.

As to `C[C@H](c1cccnc1N)N1CCOc2c(Br)c(-c3ccc(F)c4sc(N)c(C#N)c34)c(F)c3nc(OC[C@@]45CCCN4C[C@H](F)C5)nc1c23` (single isomer, unassigned) [Compound 858], the IC50 at KRAS G12V, on KRAS WT, on KRAS G12D and on KRAS G12S was at most 2000 nM in each case.

Consider `C#Cc1c(F)ccc2cc(O)cc(-c3nc4c5c(nc(OC[C@@]67CCCN6C[C@H](F)C7)nc5c3F)N([C@H](C)c3cccnc3N)CCO4)c12` (single isomer, unassigned) [Compound 862], for which the IC50 at KRAS G12V, at KRAS WT, at KRAS G12D and on KRAS G12S was at most 2000 nM in each case.

Take `C[C@H](c1cc(F)cnc1N)N1CCOc2c(C(F)(F)F)c(-c3ccc(F)c4sc(N)c(C#N)c34)c(F)c3nc(OC[C@@]45CCCN4C[C@H](F)C5)nc1c23` (single isomer, unassigned) [Compound 864]: the IC50 on KRAS G12V, at KRAS WT, at KRAS G12D and at KRAS G12S was at most 2000 nM in each case.

`N#Cc1c(N)sc2c(F)ccc(-c3c(C(F)(F)F)c4c5c(nc(OC[C@@]67CCCN6C[C@H](F)C7)nc5c3F)N([C@H](CCC3CC3)c3cccnc3N)CCO4)c12` (single isomer, unassigned) [Compound 877]: the IC50 on KRAS G12V, on KRAS WT, at KRAS G12D and on KRAS G12S was at most 2000 nM throughout.

For the compound `C[C@H](c1cccnc1N)N1CCOc2c(C(F)(F)F)c(-c3ccc(F)c4sc(N)c(C#N)c34)c(F)c3nc(OCC4(CN5CCC(=C(F)F)CC5)CC4)nc1c23` (single isomer, unassigned) [Compound 884], the IC50 at KRAS G12V, at KRAS WT, at KRAS G12D and at KRAS G12S was above 2000 nM each time.

Take `N#Cc1c(N)sc2c(F)ccc(-c3c(C(F)(F)F)c4c5c(nc(OC[C@@]67CCCN6C[C@H](F)C7)nc5c3F)N([C@H](CC3CCC3)c3cccnc3N)CCO4)c12` (single isomer, unassigned) [Compound 893]: the IC50 on KRAS G12V, on KRAS WT, at KRAS G12D and at KRAS G12S was at most 2000 nM each time.

`N#Cc1c(N)sc2c(F)ccc(-c3c(C(F)(F)F)c4c5c(nc(OC[C@@]67CCCN6C[C@@]6(CC6(F)F)C7)nc5c3F)N([C@@H](c3cccnc3N)C(F)F)CCO4)c12` (single isomer, unassigned) [Compound 897]: the IC50 at KRAS G12V, on KRAS WT, at KRAS G12D and at KRAS G12S was above 2000 nM throughout.

Regarding `N#Cc1c(N)sc2c(F)ccc(-c3c(C(F)(F)F)c4c5c(nc(OC[C@@]67CCCN6C[C@H](F)C7)nc5c3F)N([C@H](CC3CCC3)c3cccnc3N)CCO4)c12` (single isomer, unassigned) [Compound 902], the IC50 at KRAS G12V, at KRAS WT, at KRAS G12D and at KRAS G12S was above 2000 nM throughout.

In the case of `C[C@H](c1cccnc1N)N1CCOc2c(Cl)c(-c3ccc(F)c4sc(N)c(C#N)c34)c(F)c3nc(OCC45CCCC4CCC5)nc1c23` (single isomer, unassigned) [Compound 914], the concentration for half-maximal inhibition (IC50) on KRAS G12V, at KRAS WT, on KRAS G12D and on KRAS G12S was at most 2000 nM throughout.

For `CC(Oc1nc2c3c(c(Cl)c(-c4ccc(F)c5sc(N)c(C#N)c45)c(F)c3n1)OCCN2[C@H](C)c1cccnc1N)[C@@H]1CC(F)(F)CN1C` (single isomer, unassigned) [Compound 919], the IC50 at KRAS G12V, at KRAS WT, at KRAS G12D and on KRAS G12S was at most 2000 nM throughout.

As for `C=C(F)[C@@H](c1cccnc1N)N1CCOc2c(Cl)c(-c3ccc(F)c4sc(N)c(C#N)c34)c(F)c3nc(OC[C@@]45CCCN4C[C@H](F)C5)nc1c23` [Compound 601, 2-amino-4-(4-((R)-1-(2-aminopyridin-3-yl)-2-fluoroallyl)-8-chloro-10-fluoro-2-(((2R,7aS)-2-fluorotetrahydro-1H-pyrrolizin-7a(5H)-yl)methoxy)-5,6-dihydro-4H-[1,4]oxazepino[5,6,7-de]quinazolin-9-yl)-7-fluorobenzo[b]thiophene-3-carbonitrile], the IC50 on KRAS G12V, at KRAS WT, at KRAS G12D and at KRAS G12S was at most 2000 nM each time.

Turning to `C[C@H](c1ccc(F)nc1N)N1CCOc2c(C(F)(F)F)c(-c3ccc(F)c4sc(N)c(C#N)c34)c(F)c3nc(OCC4(CN5CCC(F)CC5)CC4)nc1c23` [Compound 604, 2-amino-4-(4-((R)-1-(2-amino-6-fluoropyridin-3-yl)ethyl)-10-fluoro-2-((1-((4-fluoropiperidin-1-yl)methyl)cyclopropyl)methoxy)-8-(trifluoromethyl)-5,6-dihydro-4H-[1,4]oxazepino[5,6,7-de]quinazolin-9-yl)-7-fluorobenzo[b]thiophene-3-carbonitrile], the IC50 at KRAS G12V, on KRAS WT, on KRAS G12D and on KRAS G12S was at most 2000 nM each time.

Take `N#Cc1c(N)sc2c(F)ccc(-c3c(Cl)c4c5c(nc(OC[C@@]67CCCN6C[C@H](F)C7)nc5c3F)N([C@H](C#CC3CC3)c3cccnc3N)CCO4)c12` [Compound 609, 2-amino-4-(4-((R)-1-(2-aminopyridin-3-yl)-3-cyclopropylprop-2-yn-1-yl)-8-chloro-10-fluoro-2-(((2R,7aS)-2-fluorotetrahydro-1H-pyrrolizin-7a(5H)-yl)methoxy)-5,6-dihydro-4H-[1,4]oxazepino[5,6,7-de]quinazolin-9-yl)-7-fluorobenzo[b]thiophene-3-carbonitrile]: the IC50 on KRAS G12V, on KRAS WT, at KRAS G12D and at KRAS G12S was at most 2000 nM each time.
